Results taken from PubChem BioAssay AID248 (DTP/NCI, 2004).
Toxic doses and inconclusive results are not listed. Cut-off read from the data, not from the text of the source: active = T/C of 150% or more; inactive = T/C below 125%.

System: L1210 leukemia ip in BDF1 mice, survival T/C
Test: NCI In Vivo Anticancer Drug Screen. Data for tumor model L1210 Leukemia (intraperitoneal) in B6D2F1 (BDF1) mice
Conditions: endpoint: mean survival time, higher = longer survival
In short: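 Mice bearing the transplanted tumor received compound or vehicle. Survival of the treated group was divided by that of the vehicle-treated control group to give the ratio.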

[1] = dose: 100.0 mg/kg/injection, schedule: Q01DX001 (ip), vehicle: carboxymethylcellulose (CMC)
[2] = dose: 200.0 mg/kg/injection, schedule: Q01DX001 (ip), vehicle: carboxymethylcellulose (CMC)
[3] = dose: 400.0 mg/kg/injection, schedule: Q01DX001 (ip), vehicle: carboxymethylcellulose (CMC)
[4] = dose: 100.0 mg/kg/injection, schedule: Q04DX003 (ip), vehicle: Klucel (hydroxypropylcellulose) (HPC)
[5] = dose: 200.0 mg/kg/injection, schedule: Q04DX003 (ip), vehicle: Klucel (hydroxypropylcellulose) (HPC)
[6] = dose: 400.0 mg/kg/injection, schedule: Q04DX003 (ip), vehicle: Klucel (hydroxypropylcellulose) (HPC)
[7] = dose: 100.0 mg/kg/injection, schedule: Q04DX003 (ip), vehicle: saline with Tween-80
[8] = dose: 200.0 mg/kg/injection, schedule: Q04DX003 (ip), vehicle: saline with Tween-80
[9] = dose: 400.0 mg/kg/injection, schedule: Q04DX003 (ip), vehicle: saline with Tween-80

Measured: T/C

Cc1c(NC(=O)OCc2ccccc2)no[n+]1[O-]
inactive: dose: 100.0 mg/kg/injection, schedule: Q04DX002 (ip), vehicle: saline 102 % of control | dose: 200.0 mg/kg/injection, schedule: Q04DX002 (ip), vehicle: saline 98 % of control | dose: 400.0 mg/kg/injection, schedule: Q04DX002 (ip), vehicle: saline 98 % of control

CC(=O)OC1C(C)OC(n2cnc3c(=O)[nH]cnc32)C1OC(C)=O (centres undefined)
inactive: dose: 50.0 mg/kg/injection, schedule: Q01DX001 (ip), vehicle: carboxymethylcellulose (CMC) 106 % of control | [1] 106 % of control | [2] 108 % of control | [3] 101 % of control

CCCCC(N)C(=O)O (centres undefined)
inactive: [4] 98 % of control | [5] 95 % of control | [6] 98 % of control

O=[N+]([O-])c1ccccc1C=Nc1ccccc1
inactive: dose: 100.0 mg/kg/injection, schedule: Q01DX009 (ip), vehicle: acetone 96 % of control | dose: 100.0 mg/kg/injection, schedule: Q04DX003 (ip), vehicle: acetone 106 % of control | dose: 200.0 mg/kg/injection, schedule: Q01DX009 (ip), vehicle: acetone 98 % of control | dose: 200.0 mg/kg/injection, schedule: Q04DX003 (ip), vehicle: acetone 97 % of control | dose: 400.0 mg/kg/injection, schedule: Q01DX009 (ip), vehicle: acetone 102 % of control | dose: 400.0 mg/kg/injection, schedule: Q04DX003 (ip), vehicle: acetone 101 % of control

C/C(C/C(C)=N\N=C(N)N)=N/N=C(N)N
inactive: dose: 15.0 mg/kg/injection, schedule: Q01DX Z (ip), vehicle: carboxymethylcellulose (CMC) 96 % of control | dose: 30.0 mg/kg/injection, schedule: Q01DX Z (ip), vehicle: carboxymethylcellulose (CMC) 98 % of control | dose: 60.0 mg/kg/injection, schedule: Q01DX Z (ip), vehicle: carboxymethylcellulose (CMC) 95 % of control | dose: 60.0 mg/kg/injection, schedule: Q01DX Z (oral), vehicle: carboxymethylcellulose (CMC) 90 % of control | dose: 120.0 mg/kg/injection, schedule: Q01DX Z (ip), vehicle: carboxymethylcellulose (CMC) 95 % of control | dose: 120.0 mg/kg/injection, schedule: Q01DX Z (oral), vehicle: carboxymethylcellulose (CMC) 90 % of control | dose: 240.0 mg/kg/injection, schedule: Q01DX Z (oral), vehicle: carboxymethylcellulose (CMC) 96 % of control | dose: 480.0 mg/kg/injection, schedule: Q01DX Z (oral), vehicle: carboxymethylcellulose (CMC) 96 % of control

CCOC(=O)N1CCN(P(=O)(c2ccccc2)N2CCN(C(=O)OCC)CC2)CC1
inactive: dose: 100.0 mg/kg/injection, schedule: Q01DX009 (ip), vehicle: Klucel (hydroxypropylcellulose) (HPC) 93 % of control | dose: 200.0 mg/kg/injection, schedule: Q01DX009 (ip), vehicle: Klucel (hydroxypropylcellulose) (HPC) 93 % of control | dose: 400.0 mg/kg/injection, schedule: Q01DX009 (ip), vehicle: Klucel (hydroxypropylcellulose) (HPC) 96 % of control

NC(N)=N/N=C/C(Cl)(Cl)Cl
inactive: dose: 15.0 mg/kg/injection, schedule: Q01DX Z (ip), vehicle: saline 87 % of control | dose: 30.0 mg/kg/injection, schedule: Q01DX Z (ip), vehicle: saline 103 % of control | dose: 60.0 mg/kg/injection, schedule: Q01DX Z (ip), vehicle: saline 95 % of control | dose: 60.0 mg/kg/injection, schedule: Q01DX Z (oral), vehicle: saline 97 % of control | dose: 120.0 mg/kg/injection, schedule: Q01DX Z (oral), vehicle: saline 97 % of control | dose: 240.0 mg/kg/injection, schedule: Q01DX Z (oral), vehicle: saline 95 % of control | dose: 480.0 mg/kg/injection, schedule: Q01DX Z (oral), vehicle: saline 98 % of control

CC1(C(Cl)(Cl)Cl)C=CC(=NO)C=C1 (centres undefined)
inactive: [7] 110 % of control | [8] 101 % of control

COc1ccc(OC)c(NC(=O)c2cccc([N+](=O)[O-])c2)c1
inactive: [1] 94 % of control | [2] 100 % of control | [3] 94 % of control

S=c1nc(COc2ccccc2Cl)[nH][nH]1
inactive: dose: 50.0 mg/kg/injection, schedule: Q01DX009 (ip), vehicle: saline with Tween-80 106 % of control | dose: 100.0 mg/kg/injection, schedule: Q01DX009 (ip), vehicle: saline with Tween-80 100 % of control | [7] 98 % of control | dose: 200.0 mg/kg/injection, schedule: Q01DX009 (ip), vehicle: saline with Tween-80 97 % of control | [8] 102 % of control | dose: 400.0 mg/kg/injection, schedule: Q01DX009 (ip), vehicle: saline with Tween-80 98 % of control | [9] 96 % of control

C1OCC(C2OCOC3COCOC32)O1 (centres undefined)
inactive: [4] 98 % of control | [5] 95 % of control | [6] 95 % of control

Nc1ccc(Nc2ccc([N+](=O)[O-])cc2[N+](=O)[O-])cc1
inactive: dose: 50.0 mg/kg/injection, schedule: Q01DX009 (ip), vehicle: gum acacia 99 % of control | dose: 50.0 mg/kg/injection, schedule: Q04DX003 (ip), vehicle: gum acacia 100 % of control | dose: 100.0 mg/kg/injection, schedule: Q01DX009 (ip), vehicle: gum acacia 94 % of control | dose: 100.0 mg/kg/injection, schedule: Q04DX003 (ip), vehicle: gum acacia 101 % of control | dose: 200.0 mg/kg/injection, schedule: Q01DX009 (ip), vehicle: gum acacia 94 % of control | dose: 200.0 mg/kg/injection, schedule: Q04DX003 (ip), vehicle: gum acacia 98 % of control

CCOC(=O)/C(C(=S)NC(=O)c1ccc(Br)cc1)=C(/C)N
inactive: dose: 100.0 mg/kg/injection, schedule: Q04DX003 (ip), vehicle: carboxymethylcellulose (CMC) 95 % of control | dose: 200.0 mg/kg/injection, schedule: Q04DX003 (ip), vehicle: carboxymethylcellulose (CMC) 90 % of control | dose: 400.0 mg/kg/injection, schedule: Q04DX003 (ip), vehicle: carboxymethylcellulose (CMC) 98 % of control

C1CCc2c(c3c(c4c2CCCC4)CCCC3)C1
inactive: dose: 100.0 mg/kg/injection, schedule: Q04DX002 (ip), vehicle: Klucel (hydroxypropylcellulose) (HPC) 100 % of control | dose: 200.0 mg/kg/injection, schedule: Q04DX002 (ip), vehicle: Klucel (hydroxypropylcellulose) (HPC) 93 % of control | dose: 400.0 mg/kg/injection, schedule: Q04DX002 (ip), vehicle: Klucel (hydroxypropylcellulose) (HPC) 97 % of control

CCCCC(CC)C(=O)[O][Ge]([CH2]CCC)([CH2]CCC)[O]C(=O)C(CC)CCCC (centres undefined)
inactive: dose: 100.0 mg/kg/injection, schedule: Q01DX001 (ip), vehicle: saline with Tween-80 101 % of control | dose: 200.0 mg/kg/injection, schedule: Q01DX001 (ip), vehicle: saline with Tween-80 100 % of control | dose: 400.0 mg/kg/injection, schedule: Q01DX001 (ip), vehicle: saline with Tween-80 100 % of control

CCCCCCCCCCCC(=O)Nc1cc(C(C)C)ccc1C
inactive: dose: 100.0 mg/kg/injection, schedule: Q01DX001 (ip), vehicle: saline 87 % of control | dose: 100.0 mg/kg/injection, schedule: Q04DX003 (ip), vehicle: saline 88 % of control | dose: 200.0 mg/kg/injection, schedule: Q01DX001 (ip), vehicle: saline 86 % of control | dose: 400.0 mg/kg/injection, schedule: Q01DX001 (ip), vehicle: saline 91 % of control

O=[N+]([O-])c1cccc(S(=O)(=O)OCCOc2ccccc2)c1
inactive: [7] 103 % of control | [8] 101 % of control | [9] 101 % of control

COc1ccc(-n2c(=O)c(N=Nc3ccc(Cl)cc3)c(O)n(-c3ccc(Br)cc3)c2=S)cc1
inactive: dose: 100.0 mg/kg/injection, schedule: Q01DX001 (ip), vehicle: Klucel (hydroxypropylcellulose) (HPC) 94 % of control | dose: 200.0 mg/kg/injection, schedule: Q01DX001 (ip), vehicle: Klucel (hydroxypropylcellulose) (HPC) 94 % of control | dose: 400.0 mg/kg/injection, schedule: Q01DX001 (ip), vehicle: Klucel (hydroxypropylcellulose) (HPC) 92 % of control
